Laboratory results taken from US20180263985A1, “MODULATORS OF TOLL-LIKE RECEPTORS FOR THE TREATMENT OF HIV” (Gilead Sciences, Inc., priority 2015, published 2018).

Tested on: HIV-infected CD4 T cells
Assay: PGT121 antibody-mediated killing of HIV-infected CD4 T cells, monocyte effector model
Type: cell-based, human
Conditions: monocytes from 1 subject pre-treated 1 day with 11 or 33 nM
Text: NK cells and monocytes mediate antibody-dependent cellular cytotoxicity (ADCC) and antibody-dependent cellular phagocytosis (ADCP) respectively. To assess the ability of the compound of Example 15 to enhance ADCC and ADCP, two models were developed using monocytes or PBMCs as effector cells and HIV-infected CD4 T cells as target cells. PBMCs were isolated from 3 healthy subjects' leukaphereses (AlICells, participant IDs A4593, A4596, A4606), as described above. CD4 T cells were isolated from PBMCs using negative selection magnetic beads (EasySep, StemCell Technologies). CD4 T cells were spinfected with HIV-1 isolate 92HT593 (NIH AIDS Reagent Program) and cultured for 5 days at 37° C. For the PBMC model, autologous PBMCs were cultured for 5 days with vehicle control (DMSO) or Example 15 at 100 or 1000 nM. […] Marker staining was measured by flow cytometry using a LSR Fortessa (BD Biosciences) and analyzed with FlowJo software (TreeStar). The percent killing was determined by calculating the reduction of p24+CD4+ T cells mediated by PGT121 antibody relative to a no antibody control.
PBMCs (FIG. 3) or monocytes (FIG. 4) were treated with DMSO or TLR8 agonist for 5 days (FIG. 3) or 1 day (FIG. 4) and then co-cultured for 1 day with autologous HIV-infected CD4 T cells−/+anti-HIV Env antibody PGT121. Reductions in %p24+ CD4+ T cells, relative to no antibody control, were measured by FACS. […]

SMILES: CCCC[C@H](CO)Nc1nc(N)nc2cccnc12 [Example 15]
- PGT121-mediated killing of HIV-infected CD4+ T cells compared to DMSO control: markedly enhanced
